Measured values from patent publication US10213433B2 (AbbVie Inc., priority 2010, dated 2019).

What follows are compounds tested against Bcl-2 protein (Homo sapiens (Human), UniProt P10415) (assay: Bcl-2 binding TR-FRET (Time-Resolved Fluorescence-Resonance-Energy-Transfer) assay). Settings: inhibition constant for binding to Bcl-2 protein.
Description: The smaller the Ki value, the greater is the binding affinity.

Sequence of Bcl-2 protein (P10415 whole entry): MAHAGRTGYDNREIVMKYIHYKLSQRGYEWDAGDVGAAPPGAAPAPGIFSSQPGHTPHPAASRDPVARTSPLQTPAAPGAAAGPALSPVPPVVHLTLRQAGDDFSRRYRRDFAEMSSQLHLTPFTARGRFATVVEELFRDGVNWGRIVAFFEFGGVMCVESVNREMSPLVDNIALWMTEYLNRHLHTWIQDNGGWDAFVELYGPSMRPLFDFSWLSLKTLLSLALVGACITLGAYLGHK

Row | SMILES | Ki
1 | CN1CCC(COc2ncc(S(=O)(=O)NC(=O)c3ccc(N4CCN(CC5=C(c6ccc(Cl)cc6)CC(C)(C)CC5)CC4)cc3Oc3cnc4[nH]ccc4c3)cc2Br)CC1 [Compound 47, N-({5-bromo-6-[(1-methylpiperidin-4-yl)methoxy]pyridin-3-yl}sulfonyl)-4-(4-{[2-(4-chlorophenyl)-4,4-dimethylcyclohex-1-en-1-yl]methyl}piperazin-1-yl)-2-(1H-pyrrolo[2,3-b]pyridin-5-yloxy)benzamide] | < 0.01 nM
2 | CN1CCC(COc2ccc(S(=O)(=O)NC(=O)c3ccc(N4CCN(CC5=C(c6ccc(Cl)cc6)CC(C)(C)CC5)CC4)cc3Oc3cnc4[nH]ccc4c3)cc2[N+](=O)[O-])CC1 [Compound 48, 4-(4-{[2-(4-chlorophenyl)-4,4-dimethylcyclohex-1-en-1-yl]methyl}piperazin-1-yl)-N-({4-[(1-methylpiperidin-4-yl)methoxy]-3-nitrophenyl}sulfonyl)-2-(1H-pyrrolo[2,3-b]pyridin-5-yloxy)benzamide] | < 0.01 nM
3 | CC1(C)CCC(CN2CCN(c3ccc(C(=O)NS(=O)(=O)c4ccc(OCC5CCOC(C)(C)C5)c([N+](=O)[O-])c4)c(Oc4cnc5[nH]ccc5c4)c3)CC2)=C(c2ccc(Cl)cc2)C1 (stereo not shown) [Compound 51, 4-(4-{[2-(4-chlorophenyl)-4,4-dimethylcyclohex-1-en-1-yl]methyl}piperazin-1-yl)-N-({4-[(2,2-dimethyltetrahydro-2H-pyran-4-yl)methoxy]-3-nitrophenyl}sulfonyl)-2-(1H-pyrrolo[2,3-b]pyridin-5-yloxy)benzamide] | < 0.01 nM
4 | CC(=O)N1CCC(Nc2ccc(S(=O)(=O)NC(=O)c3ccc(N4CCN(CC5=C(c6ccc(Cl)cc6)CC(C)(C)CC5)CC4)cc3Oc3cnc4[nH]ccc4c3)cc2[N+](=O)[O-])CC1 [Compound 53, N-({4-[(1-acetylpiperidin-4-yl)amino]-3-nitrophenyl}sulfonyl)-4-(4-{[2-(4-chlorophenyl)-4,4-dimethylcyclohex-1-en-1-yl]methyl}piperazin-1-yl)-2-(1H-pyrrolo[2,3-b]pyridin-5-yloxy)benzamide] | < 0.01 nM
5 | CC1(C)CCC(CN2CCN(c3ccc(C(=O)NS(=O)(=O)c4ccc(NCCCN5CCOCC5)c([N+](=O)[O-])c4)c(Oc4cnc5[nH]ccc5c4)c3)CC2)=C(c2ccc(Cl)cc2)C1 [Compound 55, 4-(4-{[2-(4-chlorophenyl)-4,4-dimethylcyclohex-1-en-1-yl]methyl}piperazin-1-yl)-N-({4-[(3-morpholin-4-ylpropyl)amino]-3-nitrophenyl}sulfonyl)-2-(1H-pyrrolo[2,3-b]pyridin-5-yloxy)benzamide] | < 0.01 nM
6 | COCCOCCS(=O)(=O)c1ccc(S(=O)(=O)NC(=O)c2ccc(N3CCN(CC4=C(c5ccc(Cl)cc5)CC(C)(C)CC4)CC3)cc2Oc2cnc3[nH]ccc3c2)cc1Cl [Compound 58, N-[(3-chloro-4-{[2-(2-methoxyethoxyl)ethyl]sulfonyl}phenyl)sulfonyl]-4-(4-{[2-(4-chlorophenyl)-4,4-dimethylcyclohex-1-en-1-yl]methyl}piperazin-1-yl)-2-(1H-pyrrolo[2,3-b]pyridin-5-yloxy)benzamide] | < 0.01 nM
7 | CC1(C)CCC(CN2CCN(c3ccc(C(=O)NS(=O)(=O)c4ccc(NCCC#N)c([N+](=O)[O-])c4)c(Oc4cnc5[nH]ccc5c4)c3)CC2)=C(c2ccc(Cl)cc2)C1 [Compound 62, 4-(4-{[2-(4-chlorophenyl)-4,4-dimethylcyclohex-1-en-1-yl]methyl}piperazin-1-yl)-N-({4-[(2-cyanoethyl)amino]-3-nitrophenyl}sulfonyl)-2-(1H-pyrrolo[2,3-b]pyridin-5-yloxy)benzamide] | < 0.01 nM
8 | CN1CCC(CNc2ccc(S(=O)(=O)NC(=O)c3ccc(N4CCN(CC5=C(c6ccc(Cl)cc6)CC(C)(C)CC5)CC4)cc3Oc3cnc4[nH]ccc4c3)cc2[N+](=O)[O-])CC1 [Compound 65, 4-(4-{[2-(4-chlorophenyl)-4,4-dimethylcyclohex-1-en-1-yl]methyl}piperazin-1-yl)-N-[(4-{[(1-methylpiperidin-4-yl)methyl]amino}-3-nitrophenyl)sulfonyl]-2-(1H-pyrrolo[2,3-b]pyridin-5-yloxy)benzamide] | < 0.01 nM
9 | CC1(C)CCC(CN2CCN(c3ccc(C(=O)NS(=O)(=O)c4ccc(NCC5COCCN5)c([N+](=O)[O-])c4)c(Oc4cnc5[nH]ccc5c4)c3)CC2)=C(c2ccc(Cl)cc2)C1 (stereo not shown) [Compound 66, 4-(4-{[2-(4-chlorophenyl)-4,4-dimethylcyclohex-1-en-1-yl]methyl}piperazin-1-yl)-N-({4-[(morpholin-3-ylmethyl)amino]-3-nitrophenyl}sulfonyl)-2-(1H-pyrrolo[2,3-b]pyridin-5-yloxy)benzamide] | < 0.01 nM
10 | CN1CCN(Nc2ccc(S(=O)(=O)NC(=O)c3ccc(N4CCN(CC5=C(c6ccc(Cl)cc6)CC(C)(C)OC5)CC4)cc3Oc3cnc4[nH]ccc4c3)cc2[N+](=O)[O-])CC1 [Compound 67, 4-(4-{[4-(4-chlorophenyl)-6,6-dimethyl-5,6-dihydro-2H-pyran-3-yl]methyl}piperazin-1-yl)-N-({4-[(4-methylpiperazin-1-yl)amino]-3-nitrophenyl}sulfonyl)-2-(1H-pyrrolo[2,3-b]pyridin-5-yloxy)benzamide] | < 0.01 nM
11 | O=C(NS(=O)(=O)c1ccc(OCC2(F)CCOCC2)c([N+](=O)[O-])c1)c1ccc(N2CCN(CC3=C(c4ccc(Cl)cc4)CCC4(CCCC4)C3)CC2)cc1Oc1cnc2[nH]ccc2c1 [Compound 73, 4-(4-{[8-(4-chlorophenyl)spiro[4.5]dec-7-en-7-yl]methyl}piperazin-1-yl)-N-({4-[(4-fluorotetrahydro-2H-pyran-4-yl)methoxy]-3-nitrophenyl}sulfonyl)-2-(1H-pyrrolo[2,3-b]pyridin-5-yloxy)benzamide] | < 0.01 nM
12 | CC1(C)CCC(c2ccc(Cl)cc2)=C(CN2CCN(c3ccc(C(=O)NS(=O)(=O)c4ccc(NCC5CCOCC5)c([N+](=O)[O-])c4)c(Oc4cnc5[nH]ccc5c4)c3)CC2)C1 [Compound 75, 4-(4-{[2-(4-chlorophenyl)-5,5-dimethylcyclohex-1-en-1-yl]methyl}piperazin-1-yl)-N-({3-nitro-4-[(tetrahydro-2H-pyran-4-ylmethyl)amino]phenyl}sulfonyl)-2-(1H-pyrrolo[2,3-b]pyridin-5-yloxy)benzamide] | < 0.01 nM
13 | CC1(C)CCC(CN2CCN(c3ccc(C(=O)NS(=O)(=O)c4ccc(OCC5COCCN5)c([N+](=O)[O-])c4)c(Oc4cnc5[nH]ccc5c4)c3)CC2)=C(c2ccc(Cl)cc2)C1 (stereo not shown) [Compound 78, 4-(4-{[2-(4-chlorophenyl)-4,4-dimethylcyclohex-1-en-1-yl]methyl}piperazin-1-yl)-N-{[4-(morpholin-3-ylmethoxy)-3-nitrophenyl]sulfonyl}-2-(1H-pyrrolo[2,3-b]pyridin-5-yloxy)benzamide] | < 0.01 nM
14 | O=C(NS(=O)(=O)c1ccc(NCC2CCOCC2)c([N+](=O)[O-])c1)c1ccc(N2CCN(CC3=C(c4ccc(Cl)cc4)CCC4(CCCC4)C3)CC2)cc1Oc1cnc2[nH]ccc2c1 [Compound 79, 4-(4-{[8-(4-chlorophenyl)spiro[4.5]dec-7-en-7-yl]methyl}piperazin-1-yl)-N-({3-nitro-4-[(tetrahydro-2H-pyran-4-ylmethyl)amino]phenyl}sulfonyl)-2-(1H-pyrrolo[2,3-b]pyridin-5-yloxy)benzamide] | < 0.01 nM
15 | CC1(C)CCC(CN2CCN(c3ccc(C(=O)NS(=O)(=O)c4ccc(NC5CCN(S(C)(=O)=O)CC5)c([N+](=O)[O-])c4)c(Oc4cnc5[nH]ccc5c4)c3)CC2)=C(c2ccc(Cl)cc2)C1 [Compound 80, 4-(4-{[2-(4-chlorophenyl)-4,4-dimethylcyclohex-1-en-1-yl]methyl}piperazin-1-yl)-N-[(4-{[1-(methylsulfonyl)piperidin-4-yl]amino}-3-nitrophenyl)sulfonyl]-2-(1H-pyrrolo[2,3-b]pyridin-5-yloxy)benzamide] | < 0.01 nM
16 | CC1(C)CCC(CN2CCN(c3ccc(C(=O)NS(=O)(=O)c4ccc(NC5CCS(=O)(=O)CC5)c([N+](=O)[O-])c4)c(Oc4cnc5[nH]ccc5c4)c3)CC2)=C(c2ccc(Cl)cc2)C1 [Compound 81, 4-(4-{[2-(4-chlorophenyl)-4,4-dimethylcyclohex-1-en-1-yl]methyl}piperazin-1-yl)-N-({4-[(1,1-dioxidotetrahydro-2H-thiopyran-4-yl)amino]-3-nitrophenyl}sulfonyl)-2-(1H-pyrrolo[2,3-b]pyridin-5-yloxy)benzamide] | < 0.01 nM
17 | CC1(C)CCC(CN2CCN(c3ccc(C(=O)NS(=O)(=O)c4ccc(NC5CCN(C6CC6)CC5)c([N+](=O)[O-])c4)c(Oc4cnc5[nH]ccc5c4)c3)CC2)=C(c2ccc(Cl)cc2)C1 [Compound 98, 4-(4-{[2-(4-chlorophenyl)-4,4-dimethylcyclohex-1-en-1-yl]methyl}piperazin-1-yl)-N-({4-[(1-cyclopropylpiperidin-4-yl)amino]-3-nitrophenyl}sulfonyl)-2-(1H-pyrrolo[2,3-b]pyridin-5-yloxy)benzamide] | < 0.01 nM
18 | CCN1CCOCC1COc1ccc(S(=O)(=O)NC(=O)c2ccc(N3CCN(CC4=C(c5ccc(Cl)cc5)CC(C)(C)CC4)CC3)cc2Oc2cnc3[nH]ccc3c2)cc1[N+](=O)[O-] (stereo not shown) [Compound 103, 4-(4-{[2-(4-chlorophenyl)-4,4-dimethylcyclohex-1-en-1-yl]methyl}piperazin-1-yl)-N-({4-[(4-ethylmorpholin-3-yl)methoxy]-3-nitrophenyl}sulfonyl)-2-(1H-pyrrolo[2,3-b]pyridin-5-yloxy)benzamide] | < 0.01 nM
19 | CC1(C)CCC(CN2CCN(c3ccc(C(=O)NS(=O)(=O)c4ccc(N[C@H]5CCCN(C6CCOCC6)C5)c([N+](=O)[O-])c4)c(Oc4cnc5[nH]ccc5c4)c3)CC2)=C(c2ccc(Cl)cc2)C1 [Compound 105, 4-(4-{[2-(4-chlorophenyl)-4,4-dimethylcyclohex-1-en-1-yl]methyl}piperazin-1-yl)-N-[(3-nitro-4-{[(3S)-1-tetrahydro-2H-pyran-4-ylpiperidin-3-yl]amino}phenyl)sulfonyl]-2-(1H-pyrrolo[2,3-b]pyridin-5-yloxy)benzamide] | < 0.01 nM
